Data reported in US20100099770A1, “METHOD FOR TREATING DIABETIC PERIPHERAL NEUROPATHIC PAIN” (SCHWARZ PHARMA AG, priority 2001, published 2010).
Several values for one entry are separate records, joined by “and”; a condition that tells them apart may be missing. Equal values may be shown once. Marks after values point to notes of the source that are not given here.

Columns and labels:
[1] = tested on: neuropathic pain (CHUNG), tactile stimulation; test: Neuropathic pain (CHUNG) test, tactile stimulation on lesioned paw; assay type: in vivo, rat; details: for FORCE INDUCING PAW-WITHDRAWAL, % change: compared with lesioned control; for FORCE INDUCING PAW-WITHDRAWAL, mean ± s.e.m.: lesioned paw
Description: (§1) The following Tables 8 and 9 show the effects of harkoseride (hereinafter referred tows SPM 927), carbamazepine, levetiracetam, gabapentin and morphine in the neuropathic pain (CHUNG) test in the rat. Eight (8) rats per group were used.

[2] = tested on: neuropathic pain (CHUNG), thermal stimulation; test: Neuropathic pain (CHUNG) test, thermal stimulation on lesioned paw; assay type: in vivo, rat
Description: as §1

[3] = tested on: Carrageenan-induced mechanical hyperalgesia; test: Carrageenan-induced mechanical hyperalgesia, paw pressure (Randall-Sellito) test; assay type: in vivo, rats; details: for nociceptive threshold: inflamed paw, 3 h after carrageenan
Protocol: Carrageenan-induced mechanical hyperalgesia in rats was induced by subplantar injection of a 0.1 ml of a 2% carrageenan suspension and measured 3 h afterwards by the paw pressure (Randall-Sellito) test.
(§2) Drugs and experimental design: SPM 927 and GBP were suspended in 1% methylcellulose and administered i.p. at doses of 10 mg/kg, 20 mg/kg and 40 mg/kg. Pre-treatment time was 30 min before pain measurement. One group of animals served as controls and consequently received an injection of solvent (10 ml/kg) and another group of animals received a reference compound (Carrageenan test: 10 mg/kg indomethacin; Formalin test: 10 mg/kg morphine). Each compound was tested in a separate experiment and each experiment included a control and a reference group. 10 rats per group were used in the Carrageenan test and 6 mice per group in the formalin test.

[4] = tested on: formalin-induced nociception (paw licking); test: Subchronic inflammatory nociception in mice (formalin test); assay type: in vivo; details: for nociceptive threshold, early phase: 0-5 min after formalin (acute pain); for nociceptive threshold, late phase: 20-30 min after formalin (subchronic inflammatory pain)
Protocol: Subchronic inflammatory nocicpetion in mice was induced by the subplantar injection of formalin (0.02 ml of a 5% solution). Nociceptive behaviour (paw licking) was measured and quantified between 0 and 5 min (acute pain) and between 20 and 30 min (subchronic inflammatory pain) after formalin.
as §2

[5] = 16 mg/kg i.p. -30 min, compared with lesioned control
[6] = 16 mg/kg i.p. -30 min, lesioned paw
[7] = 32 mg/kg i.p. -30 min, compared with lesioned control
[8] = 32 mg/kg i.p. -30 min, lesioned paw
[9] = 64 mg/kg i.p. -30 min, compared with lesioned control
[10] = 64 mg/kg i.p. -30 min, lesioned paw
[11] = 10 mg/kg i.p. 30 min before measurement

NC(=O)N1c2ccccc2C=Cc2ccccc21 [Carbamazepine, carbamazepine]
FORCE INDUCING PAW-WITHDRAWAL, % change ([1]; 16 mg/kg i.p. -30 min): +21% (b)
FORCE INDUCING PAW-WITHDRAWAL, mean ± s.e.m. ([1]; 16 mg/kg i.p. -30 min): 21.0 ± 2.3 NS (b) g
FORCE INDUCING PAW-WITHDRAWAL, % change ([1]; 32 mg/kg i.p. -30 min): +121% (b)
FORCE INDUCING PAW-WITHDRAWAL, mean ± s.e.m. ([1]; 32 mg/kg i.p. -30 min): 38.4 ± 8.1 (b) g
FORCE INDUCING PAW-WITHDRAWAL, % change ([1]; 64 mg/kg i.p. -30 min): +125% (b)
FORCE INDUCING PAW-WITHDRAWAL, mean ± s.e.m. ([1]; 64 mg/kg i.p. -30 min): 39.2 ± 9.1 (b) g
PAW-WITHDRAWAL LATENCY, % change [2, 5]: +118% (b)
PAW-WITHDRAWAL LATENCY, mean ± s.e.m. [2, 6]: 35.6 ± 4.1 (b) sec
PAW-WITHDRAWAL LATENCY, % change [2, 7]: +39% (b)
PAW-WITHDRAWAL LATENCY, mean ± s.e.m. [2, 8]: 22.7 ± 4.3 NS (b) sec
PAW-WITHDRAWAL LATENCY, % change [2, 9]: +77% (b)
PAW-WITHDRAWAL LATENCY, mean ± s.e.m. [2, 10]: 28.8 ± 6.9 NS (b) sec

NCC1(CC(=O)O)CCCCC1 [GBP, gabapentin]
nociceptive threshold [3, 11]: 254 ± 39
nociceptive threshold ([3]; 20 mg/kg i.p. 30 min before measurement): 296 ± 31
nociceptive threshold ([3]; 40 mg/kg i.p. 30 min before measurement): 282 ± 33
effect on Carrageenan-induced mechanical hyperalgesia (in words) ([3]; 10, 20, 40 mg/kg i.p.): no significant effect
FORCE INDUCING PAW-WITHDRAWAL, % change ([1]; 32 mg/kg i.p. -30 min): −1% (b)
FORCE INDUCING PAW-WITHDRAWAL, mean ± s.e.m. ([1]; 32 mg/kg i.p. -30 min): 17.2 ± 3.0 NS (b) g
FORCE INDUCING PAW-WITHDRAWAL, % change ([1]; 64 mg/kg i.p. -30 min): +35% (b)
FORCE INDUCING PAW-WITHDRAWAL, mean ± s.e.m. ([1]; 64 mg/kg i.p. -30 min): 23.5 ± 4.2 NS (b) g
FORCE INDUCING PAW-WITHDRAWAL, % change ([1]; 128 mg/kg i.p. -30 min): +93% (b)
FORCE INDUCING PAW-WITHDRAWAL, mean ± s.e.m. ([1]; 128 mg/kg i.p. -30 min): 33.6 ± 6.7 (b) g
nociceptive threshold, early phase ([4]; 10 mg/kg i.p.): 98 ± 20 s
nociceptive threshold, late phase ([4]; 10 mg/kg i.p.): 133 ± 30 s
nociceptive threshold, early phase ([4]; 20 mg/kg i.p.): 102 ± 17 s
nociceptive threshold, late phase ([4]; 20 mg/kg i.p.): 118 ± 13 s
nociceptive threshold, early phase ([4]; 40 mg/kg i.p.): 72 ± 10 s
nociceptive threshold, late phase ([4]; 40 mg/kg i.p.): 73 ± 13 s
effect on formalin-induced nociceptive response (in words) ([4]; 10, 20, 40 mg/kg i.p.): slightly but not significantly inhibited
PAW-WITHDRAWAL LATENCY, % change [2, 7]: +18% (b)
PAW-WITHDRAWAL LATENCY, mean ± s.e.m. [2, 8]: 19.3 ± 3.6 NS (b) sec
PAW-WITHDRAWAL LATENCY, % change [2, 9]: +75% (b)
PAW-WITHDRAWAL LATENCY, mean ± s.e.m. [2, 10]: 28.5 ± 5.4 NS (b) sec
PAW-WITHDRAWAL LATENCY, % change ([2]; 128 mg/kg i.p. -30 min, compared with lesioned control): +66% (b)
PAW-WITHDRAWAL LATENCY, mean ± s.e.m. ([2]; 128 mg/kg i.p. -30 min, lesioned paw): 27.1 ± 5.2 NS (b) sec

COc1ccc2c(c1)c(CC(=O)O)c(C)n2C(=O)c1ccc(Cl)cc1 [Indomethacin, indomethacin]
nociceptive threshold [3, 11]: 370 ± 15^b and 384 ± 11^b

CC[C@@H](C(N)=O)N1CCCC1=O [Levetiracetam, levetiracetam]
FORCE INDUCING PAW-WITHDRAWAL, % change ([1]; 16 mg/kg i.p. -30 min): +32% (b)
FORCE INDUCING PAW-WITHDRAWAL, mean ± s.e.m. ([1]; 16 mg/kg i.p. -30 min): 23.0 ± 4.0 NS (b) g
FORCE INDUCING PAW-WITHDRAWAL, % change ([1]; 32 mg/kg i.p. -30 min): +44% (b)
FORCE INDUCING PAW-WITHDRAWAL, mean ± s.e.m. ([1]; 32 mg/kg i.p. -30 min): 25.0 ± 5.2 NS (b) g
FORCE INDUCING PAW-WITHDRAWAL, % change ([1]; 64 mg/kg i.p. -30 min): +14% (b)
FORCE INDUCING PAW-WITHDRAWAL, mean ± s.e.m. ([1]; 64 mg/kg i.p. -30 min): 19.8 ± 4.1 NS (b) g
PAW-WITHDRAWAL LATENCY, % change [2, 5]: +17% (b)
PAW-WITHDRAWAL LATENCY, mean ± s.e.m. [2, 6]: 19.0 ± 3.6 NS (b) sec
PAW-WITHDRAWAL LATENCY, % change [2, 7]: +5% (b)
PAW-WITHDRAWAL LATENCY, mean ± s.e.m. [2, 8]: 17.1 ± 2.9 NS (b) sec
PAW-WITHDRAWAL LATENCY, % change [2, 9]: +63% (b)
PAW-WITHDRAWAL LATENCY, mean ± s.e.m. [2, 10]: 26.6 ± 6.0 NS (b) sec

CN1CC[C@]23c4c5ccc(O)c4O[C@H]2[C@@H](O)C=C[C@H]3[C@H]1C5 [Morphine, morphine]
FORCE INDUCING PAW-WITHDRAWAL, % change ([1]; 16 mg/kg i.p. -30 min): +164% (b)
FORCE INDUCING PAW-WITHDRAWAL, mean ± s.e.m. ([1]; 16 mg/kg i.p. -30 min): 45.9 ± 8.8 (b) g
nociceptive threshold, early phase ([4]; 10 mg/kg i.p.): 8 ± 6^a s and 6 ± 3^a s
PAW-[…], % change [2, 5]: +160% (b)
PAW-[…], mean ± s.e.m. [2, 6]: 42.4 ± 1.9 (b) sec
